Results taken from patent publication US7074789B2, “Kinase inhibitors” (Amgen Inc., priority 1999, dated 2006).
Read-outs that look alike come from different tables or passages of the source.

Assays:
Assay type in all cases: biochemical
Kdr = target: T1, Kdr (Homo sapiens, UniProt P35968); assay: Kinase inhibition assay (33P transfer), Kdr; conditions: read-out: KDR-1
T1 construct: Kinases are expressed as either kinase domains or full length constructs; made in house
Source text: (§1) The inhibitor compounds described herein are screened in the following manner. Kinases suitable for use in the following protocol to determine kinase activity of the compounds described herein include, -but are not limited to: Lck, Lyn, Src, Fyn, Syk, Zap-70, Itk, Tec, Btk, EGFR, ErbB2, Kdr, Flt-1, Flt-3, Tek, c-Met, InsR, and AKT.
(§2) Kinases are expressed as either kinase domains or full length constructs fused to glutathione S-transferase (GST) or polyHistidine tagged fusion proteins in either E. colior Baculovirus-High Five expression systems. […] In some instances, kinases are co-expressed or mixed with purified or partially purified regulatory polypeptides prior to measurement of activity.
(§3) Briefly, The transfer of ^33PO4 from ATP to the synthetic substrates poly(Glu, Tyr) 4:1 or poly(Arg, Ser) 3:1 attached to the bioactive surface of microtiter plates serves as the basis to evaluate enzyme activity. After an incubation period, the amount of phosphate transferred is measured by first washing the plate with 0.5% phosphoric acid, adding liquid scintillant, and then counting in a liquid scintillation detector.

c-Met = target: T2, c-Met (Homo sapiens, UniProt P08581); assay: Kinase inhibition assay (33P transfer), c-Met; conditions: Table 2, kinase inhibition class; read-out: Met-1
T2 construct: Kinases are expressed as either kinase domains or full length constructs; made in house
T2 sequence (P08581 25-1390): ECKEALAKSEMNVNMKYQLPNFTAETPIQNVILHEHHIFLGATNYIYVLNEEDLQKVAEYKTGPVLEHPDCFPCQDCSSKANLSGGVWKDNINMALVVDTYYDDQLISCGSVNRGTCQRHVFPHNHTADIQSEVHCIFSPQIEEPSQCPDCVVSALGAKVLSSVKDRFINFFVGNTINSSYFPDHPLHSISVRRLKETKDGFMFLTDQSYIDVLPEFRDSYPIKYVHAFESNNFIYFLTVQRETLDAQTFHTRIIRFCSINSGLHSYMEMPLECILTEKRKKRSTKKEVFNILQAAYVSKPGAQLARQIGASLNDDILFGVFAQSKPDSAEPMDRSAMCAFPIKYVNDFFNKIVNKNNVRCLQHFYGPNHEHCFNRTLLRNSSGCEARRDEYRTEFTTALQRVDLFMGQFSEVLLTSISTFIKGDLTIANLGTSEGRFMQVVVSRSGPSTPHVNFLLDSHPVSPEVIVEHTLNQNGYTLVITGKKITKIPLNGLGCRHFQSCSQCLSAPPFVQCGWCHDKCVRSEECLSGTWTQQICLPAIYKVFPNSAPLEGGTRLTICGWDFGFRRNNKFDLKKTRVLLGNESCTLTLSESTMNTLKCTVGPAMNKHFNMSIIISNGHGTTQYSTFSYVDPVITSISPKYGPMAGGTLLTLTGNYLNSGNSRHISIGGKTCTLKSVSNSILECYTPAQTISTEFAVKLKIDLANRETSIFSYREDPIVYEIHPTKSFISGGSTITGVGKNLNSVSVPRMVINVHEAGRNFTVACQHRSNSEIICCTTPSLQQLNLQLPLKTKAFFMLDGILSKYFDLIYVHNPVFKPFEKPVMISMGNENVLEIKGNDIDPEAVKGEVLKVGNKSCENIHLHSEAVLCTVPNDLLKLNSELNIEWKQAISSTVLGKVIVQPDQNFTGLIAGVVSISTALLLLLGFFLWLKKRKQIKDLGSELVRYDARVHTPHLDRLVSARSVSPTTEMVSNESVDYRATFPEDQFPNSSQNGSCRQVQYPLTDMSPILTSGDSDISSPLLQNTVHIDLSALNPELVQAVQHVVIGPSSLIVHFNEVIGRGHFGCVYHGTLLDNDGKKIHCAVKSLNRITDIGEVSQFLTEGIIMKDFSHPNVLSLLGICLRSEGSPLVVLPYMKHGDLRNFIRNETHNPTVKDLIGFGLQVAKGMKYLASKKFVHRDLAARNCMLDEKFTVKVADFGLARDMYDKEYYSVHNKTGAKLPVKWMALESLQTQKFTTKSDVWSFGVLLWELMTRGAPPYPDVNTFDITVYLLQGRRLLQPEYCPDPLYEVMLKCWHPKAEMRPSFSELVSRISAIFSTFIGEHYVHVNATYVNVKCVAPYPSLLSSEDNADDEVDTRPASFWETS
Source text: as §1
(§4) Kinases are expressed as either kinase domains or full length constructs fused to glutathione S-transferase (GST) or polyHistidine tagged fusion proteins in either E. colior Baculovirus-High Five expression systems. They are purified to near homogeneity by affinity chromatography essentially as previously described (Lehr et al., 1996; Gish et al., 1995). In some instances, kinases are co-expressed or mixed with purified or partially purified regulatory polypeptides prior to measurement of activity.
as §3, with “Kinase activity and inhibition are measured essentially by established protocols (Braunwalder et al., 1996). Briefly,” for “Briefly,”, “detector. The IC50 is determined by the concentration of compound that causes a 50% reduction in the amount of […] incorporated onto the substrate bound to the plate.” for “detector.”

Zap-70 = target: T3, Zap-70 (Homo sapiens, UniProt P43403); assay: Kinase inhibition assay (33P transfer), Zap-70; conditions: read-out: Zap-1
T3 construct: Kinases are expressed as either kinase domains or full length constructs; made in house
T3 sequence (P43403 1-619): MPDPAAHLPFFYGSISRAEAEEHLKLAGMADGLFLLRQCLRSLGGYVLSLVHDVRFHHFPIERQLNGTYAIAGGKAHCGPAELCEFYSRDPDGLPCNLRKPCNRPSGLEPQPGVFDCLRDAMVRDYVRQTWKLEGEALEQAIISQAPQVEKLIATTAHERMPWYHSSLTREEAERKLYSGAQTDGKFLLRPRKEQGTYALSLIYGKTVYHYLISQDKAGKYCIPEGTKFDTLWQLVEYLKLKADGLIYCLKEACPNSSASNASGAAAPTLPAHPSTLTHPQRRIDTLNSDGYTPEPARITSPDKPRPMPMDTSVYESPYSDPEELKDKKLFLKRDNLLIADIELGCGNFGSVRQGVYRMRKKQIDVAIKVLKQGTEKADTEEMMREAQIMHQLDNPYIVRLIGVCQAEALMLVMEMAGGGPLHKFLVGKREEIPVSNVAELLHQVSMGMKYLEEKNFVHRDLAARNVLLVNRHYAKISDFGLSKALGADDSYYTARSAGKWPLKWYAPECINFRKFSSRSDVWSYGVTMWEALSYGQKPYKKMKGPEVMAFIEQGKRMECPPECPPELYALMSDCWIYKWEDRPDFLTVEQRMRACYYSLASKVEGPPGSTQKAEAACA
Source text: as §1, §2, §3

AKT = target: T4, AKT (Homo sapiens, UniProt Q9Y243); assay: Kinase inhibition assay (33P transfer), AKT; conditions: Table 2, kinase inhibition class; read-out: AKT3-1
T4 construct: Kinases are expressed as either kinase domains or full length constructs; made in house
T4 sequence (Q9Y243 whole entry, the tested form may be a part): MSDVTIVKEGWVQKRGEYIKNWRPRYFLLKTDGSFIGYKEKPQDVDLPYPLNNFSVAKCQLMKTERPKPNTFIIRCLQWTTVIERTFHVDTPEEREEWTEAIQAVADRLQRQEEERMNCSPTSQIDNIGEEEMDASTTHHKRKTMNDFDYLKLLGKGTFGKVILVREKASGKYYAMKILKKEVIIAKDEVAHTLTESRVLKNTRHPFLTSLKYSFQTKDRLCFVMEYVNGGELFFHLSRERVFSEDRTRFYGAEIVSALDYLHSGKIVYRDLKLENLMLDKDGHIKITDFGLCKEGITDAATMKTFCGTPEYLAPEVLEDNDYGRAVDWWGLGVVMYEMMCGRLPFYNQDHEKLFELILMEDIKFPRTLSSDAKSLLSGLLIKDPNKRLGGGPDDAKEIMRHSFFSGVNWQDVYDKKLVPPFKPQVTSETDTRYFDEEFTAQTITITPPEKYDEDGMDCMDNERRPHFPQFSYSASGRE
Source text: as §1, §2, §3

EGFR = target: T5, EGFR (Homo sapiens, UniProt P00533); assay: Kinase inhibition assay (33P transfer), EGFR; conditions: Table 2, kinase inhibition class; read-out: EGFR-1
T5 construct: Kinases are expressed as either kinase domains or full length constructs; made in house
T5 sequence (P00533 25-1210, species assumed): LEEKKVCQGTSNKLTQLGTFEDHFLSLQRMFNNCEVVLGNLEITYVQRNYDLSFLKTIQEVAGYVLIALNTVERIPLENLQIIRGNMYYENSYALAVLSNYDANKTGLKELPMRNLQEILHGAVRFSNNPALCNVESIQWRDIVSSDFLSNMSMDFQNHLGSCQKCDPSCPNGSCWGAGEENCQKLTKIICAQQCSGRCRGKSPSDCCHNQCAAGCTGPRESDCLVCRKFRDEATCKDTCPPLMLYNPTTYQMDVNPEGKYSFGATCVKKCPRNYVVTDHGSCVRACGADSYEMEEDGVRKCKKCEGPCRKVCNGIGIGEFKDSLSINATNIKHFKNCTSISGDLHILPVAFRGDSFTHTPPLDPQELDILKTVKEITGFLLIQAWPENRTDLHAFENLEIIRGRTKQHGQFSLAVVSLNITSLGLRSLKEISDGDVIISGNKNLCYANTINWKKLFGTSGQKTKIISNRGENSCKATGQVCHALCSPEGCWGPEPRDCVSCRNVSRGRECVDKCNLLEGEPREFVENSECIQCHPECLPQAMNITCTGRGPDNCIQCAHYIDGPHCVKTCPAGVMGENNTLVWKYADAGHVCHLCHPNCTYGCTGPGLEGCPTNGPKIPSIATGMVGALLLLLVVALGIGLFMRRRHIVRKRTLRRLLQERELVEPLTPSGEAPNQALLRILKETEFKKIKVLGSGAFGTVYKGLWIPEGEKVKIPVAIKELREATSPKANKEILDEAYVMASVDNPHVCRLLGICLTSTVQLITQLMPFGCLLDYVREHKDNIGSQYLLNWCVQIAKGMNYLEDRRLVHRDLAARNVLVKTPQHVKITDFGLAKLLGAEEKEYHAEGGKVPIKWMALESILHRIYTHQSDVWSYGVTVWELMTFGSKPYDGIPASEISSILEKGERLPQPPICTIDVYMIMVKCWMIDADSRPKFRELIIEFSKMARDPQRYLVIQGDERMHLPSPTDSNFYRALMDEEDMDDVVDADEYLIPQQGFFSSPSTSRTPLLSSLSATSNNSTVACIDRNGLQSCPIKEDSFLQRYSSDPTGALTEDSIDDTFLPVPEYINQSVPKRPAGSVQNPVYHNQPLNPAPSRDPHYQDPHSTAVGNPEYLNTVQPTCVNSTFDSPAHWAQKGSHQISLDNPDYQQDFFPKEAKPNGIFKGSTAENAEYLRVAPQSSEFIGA
Source text: as §1, §4
as §3, with “Kinase activity and inhibition are measured essentially by established protocols (Braunwalder et al., 1996). Briefly,” for “Briefly,”, “detector. The IC50 is determined by the concentration of compound that causes a 50% reduction in the amount of […] incorporated onto the substrate bound to the plate.” for “detector.”

Itk = target: T6, Itk (Homo sapiens, UniProt Q08881); assay: Kinase inhibition assay (33P transfer), Itk; conditions: read-out: Itk-1
T6 construct: Kinases are expressed as either kinase domains or full length constructs; made in house
T6 sequence (Q08881 1-620): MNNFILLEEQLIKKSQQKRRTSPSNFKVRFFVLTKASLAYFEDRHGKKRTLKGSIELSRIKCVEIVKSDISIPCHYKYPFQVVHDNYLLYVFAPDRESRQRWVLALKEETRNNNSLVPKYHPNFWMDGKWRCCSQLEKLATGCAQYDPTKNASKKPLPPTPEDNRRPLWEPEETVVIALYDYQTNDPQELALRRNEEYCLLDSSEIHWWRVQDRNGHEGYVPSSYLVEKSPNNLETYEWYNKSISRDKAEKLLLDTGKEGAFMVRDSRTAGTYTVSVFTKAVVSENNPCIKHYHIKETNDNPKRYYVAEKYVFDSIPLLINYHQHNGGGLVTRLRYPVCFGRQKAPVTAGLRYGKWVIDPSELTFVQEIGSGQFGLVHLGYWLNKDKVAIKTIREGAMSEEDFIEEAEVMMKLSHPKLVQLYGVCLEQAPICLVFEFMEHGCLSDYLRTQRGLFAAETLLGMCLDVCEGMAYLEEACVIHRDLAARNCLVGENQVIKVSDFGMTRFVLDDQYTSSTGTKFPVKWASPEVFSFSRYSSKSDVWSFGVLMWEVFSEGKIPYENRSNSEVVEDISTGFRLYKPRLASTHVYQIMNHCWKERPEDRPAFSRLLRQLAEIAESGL
Source text: as §1, §4
as §3, with “Kinase activity and inhibition are measured essentially by established protocols (Braunwalder et al., 1996). Briefly,” for “Briefly,”, “detector. The IC50 is determined by the concentration of compound that causes a 50% reduction in the amount of […] incorporated onto the substrate bound to the plate.” for “detector.”

Lck = target: T7, Lck (Homo sapiens, UniProt P06239); assay: Kinase inhibition assay (33P transfer), Lck; conditions: read-out: Lck-1
T7 construct: Kinases are expressed as either kinase domains or full length constructs; made in house
T7 sequence (P06239 whole entry, species assumed, the tested form may be a part): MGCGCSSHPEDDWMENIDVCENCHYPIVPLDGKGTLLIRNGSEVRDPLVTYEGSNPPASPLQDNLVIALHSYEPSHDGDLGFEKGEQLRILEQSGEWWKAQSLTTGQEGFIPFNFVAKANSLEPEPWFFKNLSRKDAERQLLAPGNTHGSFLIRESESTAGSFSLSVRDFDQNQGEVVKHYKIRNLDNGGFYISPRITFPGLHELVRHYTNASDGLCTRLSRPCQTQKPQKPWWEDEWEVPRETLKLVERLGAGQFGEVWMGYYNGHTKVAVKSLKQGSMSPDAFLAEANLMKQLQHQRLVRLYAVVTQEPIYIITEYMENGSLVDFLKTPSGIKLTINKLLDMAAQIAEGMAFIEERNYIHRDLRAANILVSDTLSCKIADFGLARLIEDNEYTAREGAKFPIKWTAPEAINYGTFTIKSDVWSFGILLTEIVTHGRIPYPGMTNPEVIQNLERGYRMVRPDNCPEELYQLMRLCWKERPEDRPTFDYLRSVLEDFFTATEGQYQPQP
Source text: as §1, §2, §3

T1 sequence (P35968 20-1356, species assumed): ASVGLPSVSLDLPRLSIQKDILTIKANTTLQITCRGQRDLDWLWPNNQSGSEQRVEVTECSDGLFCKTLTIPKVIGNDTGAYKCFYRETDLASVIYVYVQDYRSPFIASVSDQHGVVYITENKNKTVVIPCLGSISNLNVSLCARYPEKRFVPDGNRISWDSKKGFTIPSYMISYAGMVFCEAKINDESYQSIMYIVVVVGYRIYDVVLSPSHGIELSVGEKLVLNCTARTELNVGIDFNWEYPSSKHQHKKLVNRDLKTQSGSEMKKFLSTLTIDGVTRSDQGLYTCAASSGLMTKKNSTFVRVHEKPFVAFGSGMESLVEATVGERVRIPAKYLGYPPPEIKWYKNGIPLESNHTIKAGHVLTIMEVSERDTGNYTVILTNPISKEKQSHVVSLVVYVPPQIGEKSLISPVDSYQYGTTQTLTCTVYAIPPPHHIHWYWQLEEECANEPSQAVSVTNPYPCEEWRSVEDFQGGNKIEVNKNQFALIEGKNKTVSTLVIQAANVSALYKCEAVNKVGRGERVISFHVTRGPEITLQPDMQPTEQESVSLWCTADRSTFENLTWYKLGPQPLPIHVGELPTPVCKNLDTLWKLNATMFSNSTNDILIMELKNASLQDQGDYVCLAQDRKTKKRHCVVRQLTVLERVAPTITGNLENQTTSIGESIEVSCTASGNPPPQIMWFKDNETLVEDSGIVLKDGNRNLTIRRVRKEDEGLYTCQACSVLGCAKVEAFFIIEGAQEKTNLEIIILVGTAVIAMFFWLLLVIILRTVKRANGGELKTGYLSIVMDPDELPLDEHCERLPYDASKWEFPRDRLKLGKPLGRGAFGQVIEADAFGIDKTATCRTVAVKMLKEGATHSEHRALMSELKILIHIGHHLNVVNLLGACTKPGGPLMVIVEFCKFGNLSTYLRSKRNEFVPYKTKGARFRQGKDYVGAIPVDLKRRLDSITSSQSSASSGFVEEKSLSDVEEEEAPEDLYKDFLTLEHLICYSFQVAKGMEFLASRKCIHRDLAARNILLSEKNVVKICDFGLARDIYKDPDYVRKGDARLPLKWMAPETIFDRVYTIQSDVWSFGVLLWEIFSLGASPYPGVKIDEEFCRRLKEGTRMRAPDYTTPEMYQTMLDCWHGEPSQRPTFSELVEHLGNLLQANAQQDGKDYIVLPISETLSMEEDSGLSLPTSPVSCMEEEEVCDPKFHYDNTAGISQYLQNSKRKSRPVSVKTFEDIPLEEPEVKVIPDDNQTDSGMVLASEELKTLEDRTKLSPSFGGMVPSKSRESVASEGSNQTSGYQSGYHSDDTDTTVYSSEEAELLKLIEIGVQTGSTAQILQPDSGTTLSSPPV

Compound	IC50 (Kdr) [µM]	IC50 (c-Met) [µM]	IC50 (Zap-70) [µM]	IC50 (AKT) [µM]	IC50 (EGFR) [µM]	IC50 (Itk) [µM]	IC50 (Lck) [µM]	IC50 (Kdr; Table 3) [µM]	IC50 (Zap-70; Table 3) [µM]	IC50 (Itk; Table 3) [µM]	IC50 (Lck; Table 3) [µM]
O=c1[nH]c2ccccc2n1-c1ncnc(Nc2cccc3ncccc23)n1 [Compound 686]	> 12.7	> 12.7	> 12.7	> 12.7	> 12.7	> 12.7	> 12.7	–	–	–	–
COc1cc(Nc2ncnc(-n3c(N)nc4ccccc43)n2)cc(OC)c1 [Compound 477]	< 1.1	> 12.4	> 12.4	> 12.4	> 12.4	1.1 to 6.6	1.1 to 6.6	–	–	–	–
NS(=O)(=O)c1ccc(Nc2ncnc(-n3c(=O)[nH]c4ccccc43)n2)cc1 [Compound 451]	–	> 11.7	–	9.13 to 11.7	> 11.7	–	–	1.04 to 6.26	> 11.7	> 11.7	1.04 to 6.26
COc1cc(Nc2ncnc(-n3c(=O)oc4ccccc43)n2)cc(OC)c1OC [Compound 423]	–	> 11.4	–	6.07 to 8.85	1.01 to 6.07	–	–	1.01 to 6.07	> 11.4	> 11.4	1.01 to 6.07
NS(=O)(=O)c1ccc(CNc2ncnc(-n3c(=O)[nH]c4ccccc43)n2)cc1 [Compound 456]	–	> 11.3	–	> 11.3	> 11.3	–	–	> 11.3	> 11.3	> 11.3	> 11.3

The next lines start with the values.

IC50 (Kdr) [µM]	IC50 (c-Met) [µM]	IC50 (Zap-70) [µM]	IC50 (AKT) [µM]	IC50 (EGFR) [µM]	IC50 (Itk) [µM]	IC50 (Lck) [µM]	IC50 (Kdr; Table 3) [µM]	IC50 (Zap-70; Table 3) [µM]	IC50 (Itk; Table 3) [µM]	IC50 (Lck; Table 3) [µM]	Compound
> 9.91	> 9.91	> 9.91	> 9.91	> 9.91	> 9.91	> 9.91	–	–	–	–	COc1cc(Nc2ncnc(Nc3[nH]ncc3-c3cccc(Cl)c3)n2)cc(OC)c1OC [Compound 999]
0.972 to 5.83	> 10.9	> 10.9	> 10.9	> 10.9	> 10.9	> 10.9	–	–	–	–	COc1cc(Nc2ncnc(-c3ccc(NCCCN)nc3)n2)cc(OC)c1OC [Compound 472]
0.97 to 5.82	> 10.9	> 10.9	> 10.9	> 10.9	> 10.9	> 10.9	–	–	–	–	O=c1[nH]c2ccccc2n1-c1ncnc(Nc2cccc(S(=O)(=O)CCO)c2)n1 [Compound 681]
< 0.898	> 10.1	> 10.1	> 10.1	> 10.1	> 10.1	5.39 to 7.86	–	–	–	–	COc1cc(Nc2ncnc(-c3cccnc3NCc3ccccn3)n2)cc(OC)c1OC [Compound 1080]
0.884 to 5.3	> 9.95	> 9.95	> 9.95	> 9.95	> 9.95	> 9.95	–	–	–	–	COC(=O)n1c(=O)n(-c2ncnc(Nc3cc(OC)c(OC)c(OC)c3)n2)c2ccccc21 [Compound 1032]
–	6.73 to 9.81	–	> 12.6	> 12.6	–	–	1.12 to 6.73	> 12.6	> 12.6	> 12.6	O=c1[nH]c2ccccc2n1-c1ncnc(Nc2ccc(F)c(Cl)c2)n1 [Compound 459]
